# Measured values as given in patent US20130261058A1, “ACCELERATION OF WOUND HEALING BY GROWTH HORMONE RELEASING HORMONE AND ITS AGONISTS” (University of Miami, priority 2010, published 2013).
# Entries after “also recorded” stand apart in the source; their conditions may differ.
# Experiments:
# MEFs [1] = test: Transwell-based migration assay (8 μm pore) of MEFs; format: cell-based, mouse; details: for increase of migration through 8 μm-pore transwells compared to controls / stimulation of cell migration through transwells compared to controls: 5 days exposure; for increase of migration through 8 μm-pore transwells compared to controls: p<0.05; for stimulation of cell migration through transwells compared to controls: not significant
# Experimental: (§1) The rate of cell proliferation was evaluated by the Trypan blue exclusion assay under inverted microscope. Cell migration was performed by the “scratch” assay as described, exposing cells to the peptides for 18 h (33). For the transwell-based migration assay, MEFs were seeded on 8 μm pore size transwells (Corning) and after 5 days exposure to the peptides at the indicated concentration, cell number was evaluated in the bottom compartment. All in vitro experiments were performed in triplicate and similar results were obtained.
# (§2) Subsequently MEFs were subjected to scratch wound migration assays in vitro, following exposure to GHRH and 31-38 at 100 nM. […] A considerable, notwithstanding not significant, stimulation of cell migration, by about 2-fold as compared to the controls, was also evidenced at 500 nM GHRH or 31-38. In order to rule out the possibility that the results of these two migration assays were simply due to the increased proliferation, MEFs were exposed to the peptide analogs and cell proliferation was evaluated.
# [2] = system: focal adhesion kinase (FAK); test: Immunoblot analysis of FAK expression in MEFs; format: cell-based, mouse; details: 100 nM, 24 h, Western blot
# Experimental: (§3) hGHRH(1-29)NH2 was obtained from Sigma. Agonist JI-38 was synthesized as reported (24, 26). The peptides were dissolved in phosphate buffered saline (PBS) at the indicated concentrations. Controls contained solvent alone. Fibroblasts were isolated using standard methods and maintained in Dulbecco's Modified Eagle Medium containing 10% FBS and antibiotics/antimycotics. For all experiments, primary fibroblasts of less than 10 passages old were used. For Western blot analysis, antibodies for αSMA, FAK and actin were obtained from Sigma while for SV1; the antibody 2317/5 was used (35). The same antibody was also used for the immunohistochemistry as previously described (36). Histology was performed on standard 5 μm sections of paraffin embedded material stained with hematoxylin/eosin. βGal-staining was performed in lung fibroblasts, isolated from transgenic mice bearing an αSMA-beta galactosidase reporter transgene. After treatment with the peptides for 24 hours, cells were washed (three times each for 5 min) with 0.1M PBS (pH 7.4), and fixed with 0.05% glutaraldehyde in PBS, for 10 min at room temperature. After three more washes, cells were stained with 1 mg/ml of 5-bromo-4-chloro-3indonyl β-D-galactopyranoside, 5 mM potassium ferrocyanide, 5 mM potassium ferricyanide and 2 mM MgCl2) overnight at 37° C.
# (§4) αSMA is an actin isoform that confers tensional and contractile activity (25,26). […]
# [3] = system: 4 mm circular skin wounds; test: Histology, fibroblast counting and Van Gieson staining of 4 mm skin wounds; format: in vivo, mice; details: for content of fibroblasts in wounds (histology) compared to controls: day 5, 100 nM twice daily; for increase of fibroblast density in the wound area: vs controls, direct counting, 100 nM twice daily, p<0.05, FIG. 6
# Experimental: FIG. 6. Quantification of fibroblast content in 4 mm circular skin wounds in mice exposed to GHRH or GHRH agonist JI-38 twice per day at 100 nM on day 5 and 8. Fibroblast number was assessed by direct counting of fibroblast in at least 3 random optic fields in the wound areas under light microscope and expressed relative to the fibroblast content in the controls on day 5. Data are expressed as mean±SEM. *, p<0.05.
# as §3
# (§5) Wild-type mice of mixed C57BL6/FVB genetic background, originally obtained by Jackson Laboratories were maintained in our laboratory. Care of animals was in accord with University of Athens Institutional guidelines. The reporter αSMA-βGal mice have been described elsewhere (32). Wound healing assay in vivo was performed after administration of anesthesia (100 mg/kg ketamine, 10 mg/kg xylazine). Mice were shaved in the back, wiped with ethanol and wounds were cut using a biopsy punch (4 mm). The skin was grabbed at dorsal midline and placed over a cardboard backing on one side of the skin fold. The biopsy punch was pressed until both layers of the skin were punched and the cardboard was reached. Four wounds were performed per mouse, two on each side of the dorsal midline, at equal distance, so that the tension of the skin would be equal all over the mouse back and would not influence the contraction of the wounds. The experimental protocol was reviewed and approved by the University of Athens Animal Experimentation Committee. GHRH and JI-38 (100 nM) were applied twice daily in a volume of approximately 50 μl. At least 10 wounds for each of the control (vehicle, PBS), GHRH or JI-38 were observed. In order to avoid study variation due to the wound healing variability between different experimental animals, each mouse was its own control. For wound area measurements digital pictures of wounds were analyzed by the ImageJ (N1H) software. Wound size was monitored over time relative to a 4 mm diameter circular paper cutout placed next to the wound as previously described (38). For histology, 4-6 wounds per time point per group were analyzed. Similar results were obtained among different mice and histological sections for each group and representative are shown.
# Tissue sections from mice wounds were de-paraffinized and rehydrated in distilled H2O. These sections were then stained in orcein (Sigma) 1% w/v in 96% ethanol for 30 min at room temperature and washed in distilled H2O. […]
# pituitary GHRH receptor = details: subcutaneous administration; cited from earlier work
# subcutaneous peptidases = details: cited from earlier work
# [4] = system: 4 mm circular skin wounds; test: Wound healing assay in vivo, 4 mm skin biopsy wounds, wound area; details: mice; for wound healing compared to controls: 100 nM applied twice daily to the wound
# Experimental: as §5
# In order to evaluate the effect of GHRH on wound healing in vivo, wild type mice were subjected to 4 mm skin biopsies and the healing of the inflicted wounds in the presence or absence of GHRH and JI-38 at 100 nM was observed daily. In order to avoid variation in the wound healing process between different experimental animals, a control wound was always included in each mouse, thus permitting paired analysis.
# [5] = system: α-smooth muscle actin (αSMA); test: Immunoblot analysis of αSMA expression in MEFs; format: cell-based, mouse
# Experimental: as §3
# αSMA is an actin isoform that confers tensional and contractile activity (25,26). Typically SMA is selectively expressed in smooth muscle cells of adult animals, but is induced in activated fibroblasts (myofibroblasts) during wound healing, within the stroma of many tumors, and in general under conditions where there is extensive tissue reorganization and regeneration (27,28). […] Of interest, this effect was significant at a concentration of 100 nM but not 500 nM of either peptide. A similar pattern of expression was found for focal adhesion kinase (FAK), an enzyme which plays a role in cell migration and invasion (29). The activation of αSMA in fibroblasts following GHRH treatment was confirmed in lung fibroblasts isolated from transgenic mice bearing a reporter β-galactosidase (βGal) transgene under the regulation of the αSMA promoter/enhancer (30). Cells from these mice display βGal positivity when αSMA expression is activated (30).
# MEFs [6] = test: Scratch wound migration assay of MEFs; format: cell-based, mouse; details: 100 nM, 18 h
# Experimental: as §1, §2
# MEFs [7] = test: Cell proliferation by Trypan blue exclusion assay in MEFs; format: cell-based, mouse
# Experimental: as §1, §2
# [8] = system: αSMA promoter-βGal reporter transgene; test: βGal staining of lung fibroblasts from αSMA promoter-βGal reporter transgenic mice; format: cell-based; details: 100 nM and 500 nM, 24 h
# Experimental: as §3, §4
# SV1 = test: Immunoblot analysis of SV1 expression in MEFs; format: cell-based, mouse; details: 500 nM, 24 h
# Experimental: as §3, with “After three more washes, cells were stained with 1 mg/ml of 5-bromo-4-chloro-3indonyl β-D-galactopyranoside, 5 mM potassium ferrocyanide, 5 mM potassium ferricyanide and 2 mM MgCl2) overnight at 37° C.” left out
# It was evaluated whether MEFs express the receptor for GHRH SV1. Primary MEFs were exposed to GHRH and agonistic GHRH analog JI-38 (24, 26) at 100 nM and 500 nM for 24 h and SV1 expression was then assessed by immunoblot analysis.
FAK expression [2],Substance,migration of MEFs in 8 μm-pore transwell system (figure legend) (MEFs [1]; 100 nM),increase of migration through 8 μm-pore transwells compared to controls (MEFs [1]; 100 nM),stimulation of cell migration through transwells compared to controls (MEFs [1]; 500 nM),content of fibroblasts in wounds (histology) compared to controls [3],"collagen fibers in the lamina propria, Van Gieson staining ([3]; day 8, 100 nM twice daily)","histology of epidermis, dermis and stroma ([3]; day 8, 100 nM twice daily)",increase of fibroblast density in the wound area [3],wound healing compared to controls [4],day on which acceleration of wound healing was first evidenced ([4]; 100 nM twice daily),time to nearly complete healing ([4]; 100 nM twice daily),"SMA expression ([5]; 100 nM, 24 h, immunoblot)","SMA expression ([5]; 500 nM, compared with 100 nM)",migration of MEFs in scratch assay compared to controls (MEFs [6]),proliferation of MEFs (MEFs [7]; 100 nM),proliferation of MEFs (MEFs [7]; 500 nM),other results
induced,"[Dat^1, Gln^8, Orn^12,21, Abu^15, Nle^27, Asp^28, Agm^29]hGH-RH(1-29)NH2 [JI-38]",significantly increased,~3 fold,about 2 fold,to a lesser extent; also recorded: considerable increase,could not be seen,dense and rich in fibroblasts,~40%,considerable acceleration,3 days,about 10 days post-incision,stimulated; also recorded: induced,less pronounced,considerably increased,no considerable effect,no considerable effect,potency in transwell-based migration assay relative to GHRH (MEFs [1]): more potent than GHRH; migration of MEFs in 8 μm-pore transwell system (figure legend) (MEFs [1]; 500 nM): significantly increased; potency relative to GHRH in in vivo growth hormone release assay (pituitary GHRH receptor): much more potent than GHRH; stability against subcutaneous peptidases (subcutaneous peptidases): resistance to degradation by subcutaneous peptidases; migration of MEFs in scratch assay compared to controls (MEFs [6]; listed as 51-38): increased migration; increase in fraction of βGal-positive (αSMA-lacZ positive) cells compared to untreated controls ([8]; listed as 31-38): about 3 fold; increase in fraction of βGal-positive (αSMA-lacZ positive) cells compared to untreated controls ([8]; listed as 51-38): ~3 fold
induced,hGHRH(1-29)NH2,significantly increased,about 2.5 fold,about 2 fold,increased content of fibroblasts; also recorded: considerable increase,nearly normally arranged collagen fibers,almost normal with a diffuse mild inflammatory infiltration,about 80%,considerable acceleration,3 days,about 10 days post-incision,stimulated; also recorded: induced,less pronounced,considerably increased; also recorded: increased migration,stimulated proliferation,no considerable effect,"reformation of the covering epithelium ([3]; day 8, 100 nM twice daily): almost complete; levels of SV1 expression (SV1): upregulated; potency histologically and macroscopically at equimolar concentrations ([4]; 100 nM twice daily): more potent than 31-38"
